Results published in ChEMBL document CHEMBL4346705, “(±)-trans-Dihydronarciclasine and (±)-trans-dihydrolycoricidine analogues modified in their ring A: Evaluation of their anticancer activity and a SAR study” (2019).

Experiments:
Format in all cases: functional
[1] = tested on: RPMI-8226; assay: Antiproliferative activity against human RPMI8226 cells assessed as cell viability at 10^-5 M incubated for 48 hrs by sulforhodamine B assay relative to control; settings: RPMI-8226, 48 h, read-out: Activity
[2] = tested on: A549; assay: Antiproliferative activity against human A549 cells assessed as cell viability at 10^-5 M incubated for 48 hrs by sulforhodamine B assay relative to control; settings: A549, 48 h, read-out: Activity
[3] = tested on: EKVX; assay: Antiproliferative activity against human EKVX cells assessed as cell viability at 10^-5 M incubated for 48 hrs by sulforhodamine B assay relative to control; settings: read-out: Activity
[4] = tested on: HOP-92; assay: Antiproliferative activity against human HOP92 cells assessed as cell viability at 10^-5 M incubated for 48 hrs by sulforhodamine B assay relative to control; settings: HOP-92, 48 h, read-out: Activity
[5] = tested on: NCI-H226; assay: Antiproliferative activity against human NCI-H226 cells assessed as cell viability at 10^-5 M incubated for 48 hrs by sulforhodamine B assay relative to control; settings: NCI-H226, 48 h, read-out: Activity
[6] = tested on: NCI-H23; assay: Antiproliferative activity against human NCI-H23 cells assessed as cell viability at 10^-5 M incubated for 48 hrs by sulforhodamine B assay relative to control; settings: NCI-H23, 48 h, read-out: Activity
[7] = tested on: NCI-H522; assay: Antiproliferative activity against human NCI-H522 cells assessed as cell viability at 10^-5 M incubated for 48 hrs by sulforhodamine B assay relative to control; settings: NCI-H522, 48 h, read-out: Activity
[8] = tested on: COLO 205; assay: Antiproliferative activity against human COLO205 cells assessed as cell viability at 10^-5 M incubated for 48 hrs by sulforhodamine B assay relative to control; settings: COLO 205, 48 h, read-out: Activity
[9] = tested on: HCC 2998; assay: Antiproliferative activity against human HCC2998 cells assessed as cell viability at 10^-5 M incubated for 48 hrs by sulforhodamine B assay relative to control; settings: HCC 2998, 48 h, read-out: Activity
[10] = tested on: SW-620; assay: Antiproliferative activity against human SW620 cells assessed as cell viability at 10^-5 M incubated for 48 hrs by sulforhodamine B assay relative to control; settings: SW-620, 48 h, read-out: Activity
[11] = tested on: SF-295; assay: Antiproliferative activity against human SF295 cells assessed as cell viability at 10^-5 M incubated for 48 hrs by sulforhodamine B assay relative to control; settings: SF-295, 48 h, read-out: Activity
[12] = tested on: SF-539; assay: Antiproliferative activity against human SF539 cells assessed as cell viability at 10^-5 M incubated for 48 hrs by sulforhodamine B assay relative to control; settings: SF-539, 48 h, read-out: Activity
[13] = tested on: M14; assay: Antiproliferative activity against human M14 cells assessed as cell viability at 10^-5 M incubated for 48 hrs by sulforhodamine B assay relative to control; settings: M14, 48 h, read-out: Activity
[14] = tested on: MDA-MB-435; assay: Antiproliferative activity against human MDA-MB-435 cells assessed as cell viability at 10^-5 M incubated for 48 hrs by sulforhodamine B assay relative to control; settings: MDA-MB-435, 48 h, read-out: Activity
[15] = tested on: SK-MEL-2; assay: Antiproliferative activity against human SK-MEL-2 cells assessed as cell viability at 10^-5 M incubated for 48 hrs by sulforhodamine B assay relative to control; settings: SK-MEL-2, 48 h, read-out: Activity
[16] = tested on: SK-MEL-28; assay: Antiproliferative activity against human SK-MEL-28 cells assessed as cell viability at 10^-5 M incubated for 48 hrs by sulforhodamine B assay relative to control; settings: SK-MEL-28, 48 h, read-out: Activity
[17] = tested on: UACC-257; assay: Antiproliferative activity against human UACC257 cells assessed as cell viability at 10^-5 M incubated for 48 hrs by sulforhodamine B assay relative to control; settings: UACC-257, 48 h, read-out: Activity
[18] = tested on: OVCAR-3; assay: Antiproliferative activity against human OVCAR3 cells assessed as cell viability at 10^-5 M incubated for 48 hrs by sulforhodamine B assay relative to control; settings: OVCAR-3, 48 h, read-out: Activity
[19] = tested on: OVCAR-4; assay: Antiproliferative activity against human OVCAR4 cells assessed as cell viability at 10^-5 M incubated for 48 hrs by sulforhodamine B assay relative to control; settings: OVCAR-4, 48 h, read-out: Activity
[20] = tested on: OVCAR-5; assay: Antiproliferative activity against human OVCAR5 cells assessed as cell viability at 10^-5 M incubated for 48 hrs by sulforhodamine B assay relative to control; settings: OVCAR-5, 48 h, read-out: Activity
[21] = tested on: NCI/ADR-RES; assay: Antiproliferative activity against human NCI-ADR-RES cells assessed as cell viability at 10^-5 M incubated for 48 hrs by sulforhodamine B assay relative to control; settings: read-out: Activity
[22] = tested on: SK-OV-3; assay: Antiproliferative activity against human SKOV3 cells assessed as cell viability at 10^-5 M incubated for 48 hrs by sulforhodamine B assay relative to control; settings: SK-OV-3, 48 h, read-out: Activity
[23] = tested on: CAKI-1; assay: Antiproliferative activity against human Caki1 cells assessed as cell viability at 10^-5 M incubated for 48 hrs by sulforhodamine B assay relative to control; settings: CAKI-1, 48 h, read-out: Activity
[24] = tested on: UO-31; assay: Antiproliferative activity against human UO31 cells assessed as cell viability at 10^-5 M incubated for 48 hrs by sulforhodamine B assay relative to control; settings: UO-31, 48 h, read-out: Activity
[25] = tested on: DU-145; assay: Antiproliferative activity against human DU145 cells assessed as cell viability at 10^-5 M incubated for 48 hrs by sulforhodamine B assay relative to control; settings: DU-145, 48 h, read-out: Activity
[26] = tested on: MCF7; assay: Antiproliferative activity against human MCF7 cells assessed as cell viability at 10^-5 M incubated for 48 hrs by sulforhodamine B assay relative to control; settings: MCF7, 48 h, read-out: Activity
[27] = tested on: BT-549; assay: Antiproliferative activity against human BT549 cells assessed as cell viability at 10^-5 M incubated for 48 hrs by sulforhodamine B assay relative to control; settings: BT-549, 48 h, read-out: Activity
[28] = tested on: T47D; assay: Antiproliferative activity against human T47D cells assessed as cell viability at 10^-5 M incubated for 48 hrs by sulforhodamine B assay relative to control; settings: read-out: Activity

Row | Compound | viability at 10 µM [1] [%] | viability at 10 µM [2] [%] | viability at 10 µM [3] [%] | viability at 10 µM [4] [%] | viability at 10 µM [5] [%] | viability at 10 µM [6] [%] | viability at 10 µM [7] [%] | viability at 10 µM [8] [%] | viability at 10 µM [9] [%] | viability at 10 µM [10] [%] | viability at 10 µM [11] [%] | viability at 10 µM [12] [%] | viability at 10 µM [13] [%] | viability at 10 µM [14] [%] | viability at 10 µM [15] [%] | viability at 10 µM [16] [%] | viability at 10 µM [17] [%] | viability at 10 µM [18] [%] | viability at 10 µM [19] [%] | viability at 10 µM [20] [%] | also measured
1 | CCOc1cc2c(c(OC)c1OCC)C(=O)NC1C2CC(O)C(O)C1O (racemic) | 101 | 84.3 | 99.1 | 86.4 | 99.1 | 95.8 | 93.3 | 116 | 107 | 109 | 102 | 102 | 107 | 107 | 110 | 105 | 98.2 | 102 | 105 | 109 | viability at 10 µM [21]: 105%; viability at 10 µM [22]: 103%; viability at 10 µM [23]: 90.1%; viability at 10 µM [24]: 96.1%; viability at 10 µM [25]: 106%; viability at 10 µM [26]: 97.6%; viability at 10 µM [27]: 101%; viability at 10 µM [28]: 96.3%
2 | CCOc1c(OC)cc2c(c1OCC)C(=O)NC1C2CC(O)C(O)C1O (racemic) | 106 | 94.2 | 97.5 | 84 | 97.4 | 99.9 | 88.9 | 113 | 104 | 106 | 98.7 | 106 | 99.1 | 105 | 103 | 108 | 103 | 103 | 103 | 108 | viability at 10 µM [21]: 109%; viability at 10 µM [22]: 105%; viability at 10 µM [23]: 85.2%; viability at 10 µM [24]: 81.8%; viability at 10 µM [25]: 110%; viability at 10 µM [26]: 95.2%; viability at 10 µM [27]: 103%; viability at 10 µM [28]: 106%
3 | COc1cc2c(c(OC)c1OC)C(=O)NC1C2CC(O)C(O)C1O (racemic) | 102 | 98.4 | 103 | 91.4 | 102 | 106 | 97.7 | 108 | 101 | 109 | 98.3 | 100 | 98.5 | 110 | 117 | 111 | 100 | 112 | 107 | 106 | viability at 10 µM [21]: 108%; viability at 10 µM [22]: 99.9%; viability at 10 µM [23]: 94.1%; viability at 10 µM [24]: 87.1%; viability at 10 µM [25]: 110%; viability at 10 µM [26]: 96.1%; viability at 10 µM [27]: 110%; viability at 10 µM [28]: 100%
